The results in this text go back to ChEMBL document CHEMBL4665668, “Design and development of molecular hybrids of 2-pyridylpiperazine and 5-phenyl-1,3,4-oxadiazoles as potential multifunctional agents to treat Alzheimer's disease” (Eur J Med Chem, 2019).

The target of series [1] is Cholinesterase (Homo sapiens, UniProt P06276). Nature of the series: Inhibition of human serum BChE using butyrylthiocholine iodide as substrate preincubated for 10 mins followed by substrate addition by Ellman's method. The series is classed as cell-free. On the technique in general: In Ellman's method for cholinesterases, released thiocholine reacts with DTNB.
Series [2] deals with T1, Acetylcholinesterase (Homo sapiens, UniProt P22303). Nature of the series: Inhibition of human erythrocytes AChE using acetylthiocholine iodide as substrate preincubated for 10 mins followed by substrate addition by Ellman's method. The series is classed as tissue-based, Erythrocyte.
In series [3] the target is Beta-secretase 1 (Homo sapiens, UniProt P56817). Description: Inhibition of human BACE-1 using MOCA-SEV-NL-DAEFR-DNP-RR as substrate preincubated with substrate followed by enzyme addition by FRET assay.
Series [4] is described as follows: Permeability of the compound in PBS/EtOH buffer (7:3) at 25 ug/ml after 18 hrs by PAMPA-BBB assay. For orientation: PAMPA measures passive passage across an artificial lipid membrane.
The test system of series [5] is Rattus norvegicus. Nature of the series: Improvement in learning and spatial memory in icv infused amyloid beta (1 to 42)-induced rat model of Alzheimer's disease assessed as reduction in escape latency at 5 mg/kg, po administered daily for 7 days starting from 7 days post surgery and measured daily for 5 days by Morris water maze test. To be noted: time 12.0 day. The series is classed as functional, organism-based.

The subject of series [6] is Rattus norvegicus. Description: Improvement in learning and spatial memory in icv infused amyloid beta (1 to 42)-induced rat model of Alzheimer's disease assessed as increase in number of platform crossing at 5 mg/kg, po administered daily for 7 days starting from 7 days post surgery and measured after 6 days by Morris water maze test. The series is classed as functional, organism-based. Particulars: time 13.0 day.

For series [7], the species on record is Rattus norvegicus. To be noted: Wistar, dose 5.0 mg/kg, time 7.0 day.
Series [8] has as its target Amyloid-beta precursor protein (Homo sapiens) (UniProt P05067). To be noted: dose microM 5-20, time 48.0 hrs.
A short description of series [9]: Acute toxicity in po dosed Wistar rat assessed as maximum tolerated dose by OCED guideline method. The series is classed as organism-based. Particulars: in vivo.
Series [10] deals with Rattus norvegicus. Nature of the series: Cognitive enhancing effect in po dosed scopolamine-induced Wistar rat model of amnesia assessed as increase in spontaneous alteration pretreated for 7 days followed by scopolamine challenge and measured after 30 mins by Y-maze test. Format: functional, organism-based. To be noted: dose mg/kg 2.5-10, time 7.0 day.
For series [11], the target named is T1, Acetylcholinesterase. To be noted: dose microM 5-20, time 48.0 hrs.
Series [12] in a line: Acute toxicity in Wistar rat assessed as abnormal signs at 100 to 500 mg/kg, po measured up to 14 days by OCED guideline method. The series is classed as organism-based. To be noted: in vivo, 336 h, dose 100-500 mg/kg, time 14 day.
Series [13] has as its system Rattus norvegicus. Nature of the series: Cognitive enhancing effect in scopolamine-induced Wistar rat model of amnesia assessed as increase in spontaneous alteration at 10 mg/kg, po pretreated for 7 days followed by scopolamine challenge and measured after 30 mins by Y-maze test. The series is classed as functional, organism-based. Particulars: time 7.0 day.
Series [14] concerns SH-SY5Y. Nature of the series: Neuroprotective activity against amyloid beta (1 to 42)-induced oxidative stress in human SH-SY5Y cells assessed as effect on cell viability at 10 to 80 uM measured after 24 hrs by MTT assay (reference value: 61 %). Format: functional. Particulars: dose microM 10-80. A general note: Tetrazolium dyes change colour on reduction, which living cells bring about.

In general, IC50 refers to the point on the concentration scale where inhibition reaches its midpoint. Read a high IC50 as weaker potency in that assay. The Papp is a coefficient for how fast a substance crosses the barrier. A higher Papp goes with fast passage. For orientation: MTD means the highest dose tested that stayed within the study's limit of toxicity.

Calls of active or inactive are those of the source. The calls are words filed in the database; no cut-off is given here.

Chain of Cholinesterase (P06276 whole entry): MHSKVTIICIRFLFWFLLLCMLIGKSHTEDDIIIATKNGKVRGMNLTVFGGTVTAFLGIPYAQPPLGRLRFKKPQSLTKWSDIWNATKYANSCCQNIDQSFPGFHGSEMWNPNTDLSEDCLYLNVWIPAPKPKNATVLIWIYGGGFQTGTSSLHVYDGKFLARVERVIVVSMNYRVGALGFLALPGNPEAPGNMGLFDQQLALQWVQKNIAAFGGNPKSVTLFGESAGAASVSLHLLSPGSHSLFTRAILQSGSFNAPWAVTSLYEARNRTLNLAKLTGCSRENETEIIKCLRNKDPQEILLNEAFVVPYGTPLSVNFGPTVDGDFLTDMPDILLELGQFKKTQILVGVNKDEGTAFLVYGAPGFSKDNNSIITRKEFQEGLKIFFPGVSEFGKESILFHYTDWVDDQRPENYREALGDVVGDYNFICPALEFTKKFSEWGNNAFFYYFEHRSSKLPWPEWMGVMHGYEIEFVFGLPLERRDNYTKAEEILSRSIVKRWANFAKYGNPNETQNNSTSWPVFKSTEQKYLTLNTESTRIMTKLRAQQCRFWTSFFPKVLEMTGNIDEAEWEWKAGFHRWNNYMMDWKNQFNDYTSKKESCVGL
Chain of Beta-secretase 1 (P56817 whole entry): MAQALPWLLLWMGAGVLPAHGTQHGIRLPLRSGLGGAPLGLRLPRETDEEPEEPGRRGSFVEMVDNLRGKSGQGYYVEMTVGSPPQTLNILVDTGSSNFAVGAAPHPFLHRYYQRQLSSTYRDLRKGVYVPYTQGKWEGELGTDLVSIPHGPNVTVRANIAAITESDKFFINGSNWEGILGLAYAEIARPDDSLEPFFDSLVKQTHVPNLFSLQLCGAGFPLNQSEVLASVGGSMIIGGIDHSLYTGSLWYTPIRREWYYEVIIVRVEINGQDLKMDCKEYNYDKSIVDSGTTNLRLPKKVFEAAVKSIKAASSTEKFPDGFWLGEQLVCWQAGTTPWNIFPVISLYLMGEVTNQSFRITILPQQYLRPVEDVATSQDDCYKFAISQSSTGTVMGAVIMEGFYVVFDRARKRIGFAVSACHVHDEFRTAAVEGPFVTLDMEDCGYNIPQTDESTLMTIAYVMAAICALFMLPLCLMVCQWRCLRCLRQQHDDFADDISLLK
T1 sequence (P22303 whole entry): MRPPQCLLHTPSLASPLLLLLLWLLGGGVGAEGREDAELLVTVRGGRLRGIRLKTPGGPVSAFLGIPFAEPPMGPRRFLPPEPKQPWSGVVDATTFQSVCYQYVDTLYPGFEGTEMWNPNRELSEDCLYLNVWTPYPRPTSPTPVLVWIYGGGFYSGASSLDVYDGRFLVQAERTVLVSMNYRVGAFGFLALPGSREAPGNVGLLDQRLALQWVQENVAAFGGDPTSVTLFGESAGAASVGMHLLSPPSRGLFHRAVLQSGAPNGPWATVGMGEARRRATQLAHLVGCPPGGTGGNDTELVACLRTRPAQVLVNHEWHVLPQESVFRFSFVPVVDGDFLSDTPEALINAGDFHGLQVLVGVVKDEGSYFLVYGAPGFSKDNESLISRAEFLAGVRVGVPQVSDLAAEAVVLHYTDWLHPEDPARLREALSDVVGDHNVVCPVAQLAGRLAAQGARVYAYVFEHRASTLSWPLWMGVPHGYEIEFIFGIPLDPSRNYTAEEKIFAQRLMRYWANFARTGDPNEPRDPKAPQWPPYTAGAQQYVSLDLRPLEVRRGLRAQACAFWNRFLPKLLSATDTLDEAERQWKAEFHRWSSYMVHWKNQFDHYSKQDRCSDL
Chain of Amyloid-beta precursor protein (Homo sapiens) (P05067 whole entry): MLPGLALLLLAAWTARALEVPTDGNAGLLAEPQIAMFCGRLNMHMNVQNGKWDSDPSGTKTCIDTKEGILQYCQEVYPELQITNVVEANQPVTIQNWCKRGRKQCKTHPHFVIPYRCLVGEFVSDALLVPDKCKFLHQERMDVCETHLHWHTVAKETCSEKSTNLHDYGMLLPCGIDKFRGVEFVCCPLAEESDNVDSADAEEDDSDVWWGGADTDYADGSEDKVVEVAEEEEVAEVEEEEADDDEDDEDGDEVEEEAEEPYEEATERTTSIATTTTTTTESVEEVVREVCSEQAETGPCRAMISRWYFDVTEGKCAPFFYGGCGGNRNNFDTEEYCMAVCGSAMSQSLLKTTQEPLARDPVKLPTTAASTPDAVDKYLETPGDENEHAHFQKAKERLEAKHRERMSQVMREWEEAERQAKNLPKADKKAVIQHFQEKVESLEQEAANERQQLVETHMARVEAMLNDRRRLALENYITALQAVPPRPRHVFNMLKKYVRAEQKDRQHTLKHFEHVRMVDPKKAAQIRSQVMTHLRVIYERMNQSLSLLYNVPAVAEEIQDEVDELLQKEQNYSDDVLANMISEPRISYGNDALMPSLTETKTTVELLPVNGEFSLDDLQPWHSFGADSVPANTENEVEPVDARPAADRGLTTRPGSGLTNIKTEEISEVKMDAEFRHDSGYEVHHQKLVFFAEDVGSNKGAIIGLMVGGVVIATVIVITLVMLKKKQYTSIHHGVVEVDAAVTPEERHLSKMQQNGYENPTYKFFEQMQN

For `Cc1cccc(/C=N/NC(=O)N2CCN(c3ccccn3)CC2)c1`, the IC50 in [1] was > 10 µM; in [2], > 10000 nM; in [3] it was 4370 nM.

For `O=C(N/N=C/c1ccc(Br)cc1)N1CCN(c2ccccn2)CC1`, the IC50 is 1.88 µM in [1], 489 nM in series [2] and 296 nM in [3]. The compound further displayed a Papp at 18 h, 25 ug/ml in [4] of 3.6 ×10⁻⁶ cm/s.

`Oc1ccc(-c2nnc(N3CCN(c4ccccn4)CC3)o2)cc1`: the IC50 in series [1] amounted to 6.02 µM; in series [2] it was 1180 nM; in series [3], 1780 nM.

On to `O=C(N/N=C/c1ccc(C(F)(F)F)cc1)N1CCN(c2ccccn2)CC1`, for which the IC50 in series [1] is 4.04 µM; in series [2] it was 1320 nM; in series [3] it was 1820 nM.

For the compound `c1ccc(-c2nnc(N3CCN(c4ccccn4)CC3)o2)cc1`, the values for the IC50 in [1], in series [2] and in [3] were 3.27 µM, 341 nM and 3220 nM, respectively.

Regarding `Clc1ccc(-c2nnc(N3CCN(c4ccccn4)CC3)o2)cc1`, the IC50 worked out at 1.82 µM in series [1], 102 nM in series [2] and 1320 nM in series [3].

`O=C(N/N=C/c1ccc(O)cc1)N1CCN(c2ccccn2)CC1`: the IC50 came out at 6.15 µM in [1], 4810 nM in series [2] and 4680 nM in series [3].

On to `O=[N+]([O-])c1ccc(-c2nnc(N3CCN(c4ccccn4)CC3)o2)cc1`, for which the IC50 amounted to 2.86 µM in [1], 219 nM in series [2] and 1340 nM in [3].

On to `O=C(N/N=C/c1ccc(OC(F)(F)F)cc1)N1CCN(c2ccccn2)CC1`, for which the IC50 in series [1] is 4.35 µM; in series [2], 2910 nM; in series [3], 248 nM.

Consider `O=C(N/N=C/c1ccc(Cl)cc1)N1CCN(c2ccccn2)CC1`, for which the values for the IC50 in [1], in series [2] and in series [3] were 4.82 µM, 3420 nM and 2960 nM, respectively.

As to `COc1cccc(-c2nnc(N3CCN(c4ccccn4)CC3)o2)c1OC`, the results for the IC50 in series [1], in [2] and in series [3] were 5.22 µM, 1190 nM and 2160 nM, respectively.

Regarding `O=C(N/N=C/c1ccccc1)N1CCN(c2ccccn2)CC1`, the IC50 in [1] was found to be 4.22 µM; in series [2], 3620 nM; in [3], 7690 nM.

Regarding `O=C(N/N=C/c1ccc(F)cc1F)N1CCN(c2ccccn2)CC1`, the IC50 in series [1] was found to be 3.97 µM; in series [2], 682 nM; in series [3], 446 nM. This compound yielded a Papp at 18 h, 25 ug/ml in series [4] of 4.1 ×10⁻⁶ cm/s.

As to `O=C(N/N=C/c1ccc(F)cc1)N1CCN(c2ccccn2)CC1`, the IC50 in series [1] stood at 3.99 µM; in series [2], 1870 nM; in series [3], 1240 nM.

Regarding `O=C(N/N=C/c1ccc([N+](=O)[O-])cc1)N1CCN(c2ccccn2)CC1`, the 50% inhibitory concentration (IC50) in [1] is 4.02 µM; in series [2] it was 1160 nM; in [3] it was 2640 nM.

For `O=C(N/N=C/c1ccc(O)cc1O)N1CCN(c2ccccn2)CC1`, the figures for the 50% inhibitory concentration (IC50) in series [1], in series [2] and in series [3] were 4.82 µM, 4680 nM and 4640 nM, respectively.

In the case of `Fc1ccc(-c2nnc(N3CCN(c4ccccn4)CC3)o2)cc1`, the figures for the IC50 in [1], in series [2] and in series [3] were 1.22 µM, 136 nM and 1480 nM, respectively.

Regarding `COc1cccc(/C=N/NC(=O)N2CCN(c3ccccn3)CC2)c1OC`, the results for the IC50 in series [1], in [2] and in series [3] were > 10 µM, > 10000 nM and 6820 nM, respectively.

For the compound `FC(F)(F)Oc1ccc(-c2nnc(N3CCN(c4ccccn4)CC3)o2)cc1`, the figures for the IC50 in [1], in series [2] and in series [3] were 1.96 µM, 89 nM and 822 nM, respectively. Also, the apparent permeability coefficient (Papp) at 18 h, 25 ug/ml in series [4] was 6.8 ×10⁻⁶ cm/s.

On to `COc1cc(/C=N/NC(=O)N2CCN(c3ccccn3)CC2)cc(OC)c1OC`, for which the figures for the IC50 in series [1], in series [2] and in [3] were 4.68 µM, 5690 nM and 4640 nM, respectively.

As for `Cc1cccc(-c2nnc(N3CCN(c4ccccn4)CC3)o2)c1`, the concentration for half-maximal inhibition (IC50) in series [1] is > 10 µM; in series [2] it was 5240 nM; in [3] it was 2640 nM.

For the compound `COc1cc(-c2nnc(N3CCN(c4ccccn4)CC3)o2)cc(OC)c1OC`, the IC50 in series [1] came to 3.64 µM; in series [2], 222 nM; in series [3], 3240 nM.

As for `COc1cc2c(cc1OC)C(=O)C(CC1CCN(Cc3ccccc3)CC1)C2` (stereo not drawn), the outcome in series [5] and in series [6] was Active. Also, the inhibition entry in series [7] was “Active”. The compound further came in with a Flu intensity in series [8] of 0.31.

With `Cc1ccc(-c2nnc(N3CCN(c4ccccn4)CC3)o2)cc1`, the IC50 in series [1] was > 10 µM; in series [2], 1020 nM; in series [3], 2480 nM.

On to `FC(F)(F)c1ccc(-c2nnc(N3CCN(c4ccccn4)CC3)o2)cc1`, for which the values for the IC50 in [1], in series [2] and in series [3] were 2.12 µM, 182 nM and 465 nM, respectively. The Papp at 18 h, 25 ug/ml in series [4] worked out at 6.3 ×10⁻⁶ cm/s.

`Cc1ccc(/C=N/NC(=O)N2CCN(c3ccccn3)CC2)cc1`: the IC50 in series [1] was > 10 µM; in series [2], 4780 nM; in series [3], 3920 nM.

Turning to `Brc1ccc(-c2nnc(N3CCN(c4ccccn4)CC3)o2)cc1`, the IC50 came to 0.846 µM in [1], 74 nM in series [2] and 126 nM in series [3]. The MTD in series [9] is 100 mg/kg. Moreover, the Activity entry in series [10] was “Dose-dependent effect”; in series [12], “Non-Toxic”; in [14], 63%. The Flu intensity in series [8] was 0.42; in [11] it was 0.6. In [4], this compound registered a Papp at 18 h, 25 ug/ml of 5.9 ×10⁻⁶ cm/s. In series [13], the result was Active.

As to `Oc1ccc(-c2nnc(N3CCN(c4ccccn4)CC3)o2)c(O)c1`, the results for the 50% inhibitory concentration (IC50) in series [1], in series [2] and in series [3] were 3.29 µM, 1340 nM and 382 nM, respectively.

Regarding `Oc1ccccc1-c1nnc(N2CCN(c3ccccn3)CC2)o1`, the IC50 in [1] was determined as 8.22 µM; in series [2], 1230 nM; in [3] it was 2230 nM.

As to `O=C(N/N=C/c1ccccc1O)N1CCN(c2ccccn2)CC1`, the IC50 in [1] is > 10 µM; in series [2] it was > 10000 nM; in [3] it was 5880 nM.
